Assay results reported in patent publication US20240216395A1, “19-NOR C3,3-DISUBSTITUTED C21 -N-PYRAZOLYL STEROID FOR USE IN TREATING MAJOR DEPRESSIVE DISORDER AND […]” (priority 2021, published 2024).
Several values for one entry are separate records, joined by “and”; a condition that tells them apart may be missing. Identical values can stand only once.

Experiments:
[1] = system: adult subjects with major depressive disorder (MDD); assay: Phase 3 placebo-controlled study of Compound (1) 50 mg QD for 14 days in MDD (NCT04442490): efficacy scales; assay type: in vivo, human; settings: for Day 15 HAMD-17 improvement maintained on average: Day 15 HAMD-17 responders; for Day 15 MADRS improvement maintained on average: Day 15 MADRS responders
From the text: Title of Study: A Phase 3, Multicenter, Double-Blind, Randomized, Placebo-Controlled Study Evaluating the Efficacy of Compound (1) in the Treatment of Adult Subjects with Major Depressive Disorder
This was a randomized, double-blind, parallel-group, placebo-controlled study in subjects with MDD. The diagnosis of MDD was made according to Structured Clinical Interview for Diagnostic and DSM-5 Clinical Trial Version (SCID-5-CT) performed by a qualified healthcare professional.
Eligible subjects were stratified based on use of antidepressant treatment (current/stable or not treated/withdrawn ≥60 days) and randomized within each stratum to one of 2 treatment groups (Compound (1)—50 mg or matching placebo) in a 1:1 ratio. Subjects self-administered study drug once daily at approximately 8 PM with fat-containing food (e.g., within 1 hour of an evening meal which contains fat or with a fat-containing snack), on an outpatient basis, for 14 days. Subjects returned to the study center during the treatment and follow-up periods as outlined in Table 1.
Subjects self-administered Compound (1) (50 mg or 40 mg [for dose adjustments only as permitted]) or matching placebo orally once daily at approximately 8 PM with food for 14 days. The 50-mg and 40-mg doses was administered as 2 capsules per dose (50 mg, administered as one 30 mg-capsule and one 20-mg capsule, and 40-mg, administered as two 20-mg capsules). Placebo was also administered as 2 capsules to maintain the blind.
The estimand for the primary efficacy analysis was the mean change from baseline in HAM-D total score at Day 15. This was analyzed using a mixed effects model for repeated measures (MMRM); the model included treatment, baseline HAM-D total score, stratification factor, assessment time point, and time point-by-treatment as explanatory variables. All explanatory variables were treated as fixed effects. All post-baseline time points were included in the model. The main comparison was between Compound (1) and placebo at the 15-day time point. Model-based point estimates (e.g., least squares [LS] means, 95% confidence intervals, and p-values) were reported where applicable. An unstructured covariance structure was used to model the within-subject errors. If there was a convergence issue with the unstructured covariance model, Toeplitz, or Autoregressive (1) [AR(1)] covariance structure was used, following this sequence until convergence was achieved. […] When the covariance structure was not UN, the sandwich estimator for the variance covariance matrix was derived, using the EMPIRICAL option in the PROC MIXED statement in SAS.
Similar to those methods described above for the primary endpoint, an MMRM was used for the analysis of the change from baseline in other time points in HAM-D total score, MADRS total score, HAM-A total score, SF-36v2 score, PHQ-9 score, and selected individual items and/or subscale scores in HAM-D for change from baseline.
Generalized estimating equation (GEE) methods were used for the analysis of HAM-D Response (defined as ≥50% reduction from baseline in HAM-D total score) and HAM-D Remission (defined as HAM-D total score of ≤7.0). GEE models included terms for treatment, baseline score, stratification factor, assessment time point, and time point-by-treatment as explanatory variables. The comparison of interest was the difference between Compound (1) and matching placebo at the 15-day time point. Model-based point estimates (e.g., odds ratios), 95% confidence intervals, and p-values were reported.
A GEE method was also used for the analysis of CGI-I Response including terms for treatment, baseline CGI-S score, stratification factor, assessment time point, and time point-by-treatment as explanatory variables.
Compound (1) is an investigational two-week, once-daily oral drug for MDD that represents a potential new class of drug for the management of this common but serious mental health disorder. […]

[2] = aqueous solution formulation (Hoffmann 2020); cited from earlier work

## C[C@@]1(O)CC[C@H]2[C@H](CC[C@@H]3[C@@H]2CC[C@]2(C)[C@@H](C(=O)Cn4cc(C#N)cn4)CC[C@@H]32)C1 [Compound (1), 1-(2-((3R,5R,8R,9R,10S,13S,14S,17S)-3-hydroxy-3,13-dimethylhexadecahydro-1H-cyclopenta[a]phenanthren-17-yl)-2-oxoethyl)-1H-pyrazole-4-carbonitrile]
[1]; ADT=No, Day 3
  HAMD-17 Remission odds ratio (95% CI) vs placebo: 2.4 (0.91, 6.58)
  HAMD-17 Response odds ratio (95% CI) vs placebo: 2.3 (1.36, 3.79)
[1]; ADT=No, Day 8
  HAMD-17 Remission odds ratio (95% CI) vs placebo: 2.1 (1.14, 3.91)
  HAMD-17 Response odds ratio (95% CI) vs placebo: 1.7 (1.08, 2.58)
[1]; ADT=No, Day 12
  HAMD-17 Remission odds ratio (95% CI) vs placebo: 1.5 (0.92, 2.44)
  HAMD-17 Response odds ratio (95% CI) vs placebo: 1.5 (1.02, 2.35)
[1]; ADT=No, Day 15
  HAMD-17 Remission odds ratio (95% CI) vs placebo: 1.1 (0.70, 1.76)
  HAMD-17 Response: 55.5 n/N (%)
  HAMD-17 Response odds ratio (95% CI) vs placebo: 1.4 (0.92, 2.12)
[1]; ADT=No, Day 21
  HAMD-17 Remission odds ratio (95% CI) vs placebo: 1.0 (0.62, 1.65)
  HAMD-17 Response odds ratio (95% CI) vs placebo: 1.1 (0.73, 1.70)
[1]; ADT=No, Day 28
  HAMD-17 Remission odds ratio (95% CI) vs placebo: 0.86 (0.52, 1.41)
  HAMD-17 Response odds ratio (95% CI) vs placebo: 1.0 (0.65, 1.55)
[1]; ADT=No, Day 35
  HAMD-17 Remission odds ratio (95% CI) vs placebo: 1.1 (0.66, 1.74)
  HAMD-17 Response odds ratio (95% CI) vs placebo: 1.1 (0.72, 1.70)
[1]; ADT=No, Day 42
  HAMD-17 Remission odds ratio (95% CI) vs placebo: 1.0 (0.61, 1.55)
  HAMD-17 Response odds ratio (95% CI) vs placebo: 1.2 (0.81, 1.90)
[1]; ADT=Yes, Day 3
  HAMD-17 Response odds ratio (95% CI) vs placebo: 1.9 (0.87, 3.98)
[1]; ADT=Yes, Day 8
  HAMD-17 Response odds ratio (95% CI) vs placebo: 1.9 (1.01, 3.73)
[1]; ADT=Yes, Day 12
  HAMD-17 Response odds ratio (95% CI) vs placebo: 1.9 (0.98, 3.58)
[1]; ADT=Yes, Day 15
  HAMD-17 Response: 57.3 n/N (%)
  HAMD-17 Response odds ratio (95% CI) vs placebo: 1.4 (0.74, 2.71)
[1]; ADT=Yes, Day 21
  HAMD-17 Response odds ratio (95% CI) vs placebo: 1.8 (0.95, 3.53)
[1]; ADT=Yes, Day 28
  HAMD-17 Response odds ratio (95% CI) vs placebo: 1.4 (0.72, 2.64)
[1]; ADT=Yes, Day 35
  HAMD-17 Response odds ratio (95% CI) vs placebo: 1.4 (0.76, 2.75)
[1]; ADT=Yes, Day 42
  HAMD-17 Response odds ratio (95% CI) vs placebo: 1.7 (0.91, 3.34)
[1]; Day 3
  CGI-Improvement Response odds ratio vs placebo: 1.8 (0.0032)
  CGI-Severity LS mean TRT diff vs placebo: −0.4 (<0.0001)
  HAMD-17 total score LS mean (SE) CFB: −9.8 (0.38)
  HAMD-17 total score LS mean TRT diff vs placebo: −3.0 (<0.0001) points
[1]; Day 8
  CGI-Improvement Response odds ratio vs placebo: 1.9 (0.0005)
  CGI-Severity LS mean TRT diff vs placebo: −0.4 (0.0001)
  HAM-A total score LS mean (SE) CFB: −8.7 (0.40)
  HAMD-17 total score LS mean (SE) CFB: −12.0 (0.45)
  MADRS total score LSM (SE) CFB: −14.6 (0.69)
[1]; Day 12
  CGI-Improvement Response odds ratio vs placebo: 1.6 (0.0101)
  CGI-Severity LS mean TRT diff vs placebo: −0.3 (0.0014)
[1]; Day 15
  CGI-Improvement Response odds ratio vs placebo: 1.5 (0.0191)
  HAM-A total score LS mean (SE) CFB: −10.4 (0.43)
  HAMD-17 Anxiety subscale LSM difference vs placebo: −0.9 points
  HAMD-17 Bech-6 subscale LSM difference vs placebo: −3.2 points
  HAMD-17 Core Depression subscale LSM difference vs placebo: −2.0 points
  HAMD-17 Maier subscale LSM difference vs placebo: −3.0 points
  HAMD-17 early insomnia item mean reduction from baseline: −1.0
  HAMD-17 late insomnia item mean reduction from baseline: −0.8
  HAMD-17 middle insomnia item mean reduction from baseline: −1.2
  HAMD-17 total score LS mean (SE) CFB: −14.1 (0.51)
  MADRS Response (≥50% reduction) rate: 51.6%
  MADRS total score LS mean TRT diff vs placebo: −2.4 points and −2.4 (0.0238) points
  SF-36v2 Bodily Pain (BP) CFB: 5.26
  SF-36v2 General Health (GH) CFB: 4.51
  SF-36v2 Mental Health (MH) CFB: 14.45
  SF-36v2 Physical-Functioning (PF) CFB: 3.41
  SF-36v2 Role-Emotional (RE) CFB: 14.19
  SF-36v2 Role-Physical (RP) CFB: 3.45
  SF-36v2 Social-Functioning (SF) CFB: 12.89
  SF-36v2 Vitality (V) CFB: 13.12
  SF-36v2 least-squares mean vitality score increase versus placebo: 3.1
[1]; Day 15 (primary endpoint)
  HAMD-17 total score LS mean TRT diff vs placebo: −1.7 points and −1.7 (0.0141) points
[1]; Day 15, ADT use No (monotherapy)
  HAMD-17 LSM treatment difference vs placebo, subgroup: −1.98
[1]; Day 15, ADT use Yes (combination)
  HAMD-17 LSM treatment difference vs placebo, subgroup: −1.21
[1]; Day 15, age 18-24 years
  HAMD-17 LSM treatment difference vs placebo, subgroup: −1.67
[1]; Day 15, age 25-50 years
  HAMD-17 LSM treatment difference vs placebo, subgroup: −1.96
[1]; Day 15, age 51-64 years
  HAMD-17 LSM treatment difference vs placebo, subgroup: −1.18
[1]; Day 15, baseline BMI 18.5-24.9 kg/m^2
  HAMD-17 LSM treatment difference vs placebo, subgroup: −1.02
[1]; Day 15, baseline BMI 25-29.9 kg/m^2
  HAMD-17 LSM treatment difference vs placebo, subgroup: −3.94
[1]; Day 15, baseline BMI ≥30 kg/m^2
  HAMD-17 LSM treatment difference vs placebo, subgroup: −1.04
[1]; Day 15, baseline HAMD-17TS <26
  HAMD-17 LSM treatment difference vs placebo, subgroup: −1.25
[1]; Day 15, baseline HAMD-17TS ≥26
  HAMD-17 LSM treatment difference vs placebo, subgroup: −1.91
[1]; Day 15, female
  HAMD-17 LSM treatment difference vs placebo, subgroup: −1.58
[1]; Day 15, male
  HAMD-17 LSM treatment difference vs placebo, subgroup: −1.81
[1]; Day 15, race Black
  HAMD-17 LSM treatment difference vs placebo, subgroup: −2.20
[1]; Day 15, race Other
  HAMD-17 LSM treatment difference vs placebo, subgroup: −4.22
[1]; Day 15, race White
  HAMD-17 LSM treatment difference vs placebo, subgroup: −1.47
[1]; Day 28
  Day 15 HAMD-17 improvement maintained on average: 81.7%
  Day 15 MADRS improvement maintained on average: 85.2%
  MADRS total score LS mean TRT diff vs placebo: −1.5
  MADRS total score LSM (SE) CFB: −16.4 (0.80)
[1]; Day 42
  Day 15 HAMD-17 improvement maintained on average: 86.1%
  Day 15 MADRS improvement maintained on average: 87.6%
  HAMD-17 total score LS mean (SE) CFB: −13.5 (0.55)
  HAMD-17 total score LS mean TRT diff vs placebo: −0.9
  MADRS total score LS mean TRT diff vs placebo: −1.3
  MADRS total score LSM (SE) CFB: −17.5 (0.83)
  Patients retaining ≥65% of Day 15 HAMD-17 improvement: 75.4% and 74.9%
[1]; Day 21
  Patients retaining ≥65% of Day 15 HAMD-17 improvement: 81.0%
[1]; overall, Day 3
  HAMD-17 Remission (HAMD-17≤7) rate: 7.6%
  HAMD-17 Remission odds ratio vs placebo: 3.57
  HAMD-17 Response (≥50% reduction) rate: 29.3%
  HAMD-17 Response odds ratio vs placebo: 2.14
[1]; overall, Day 15
  HAMD-17 Response (≥50% reduction) rate: 56.0%
  HAMD-17 Response odds ratio vs placebo: 1.40
[2]
  T½ values reported by a prior study: 14 to 19 h
